This note sets out measurements from patent publication US7632930B2, “Oligosaccharide derivative” (Sankyo Company Limited, priority 2003, dated 2009).

Assay [1] deals with T1, human pancreatic α-amylase (HPA) (Homo sapiens, UniProt P04746).
T1 construct: purchased International Reagents Caribzyme AMY
T1 sequence (P04746 16-511): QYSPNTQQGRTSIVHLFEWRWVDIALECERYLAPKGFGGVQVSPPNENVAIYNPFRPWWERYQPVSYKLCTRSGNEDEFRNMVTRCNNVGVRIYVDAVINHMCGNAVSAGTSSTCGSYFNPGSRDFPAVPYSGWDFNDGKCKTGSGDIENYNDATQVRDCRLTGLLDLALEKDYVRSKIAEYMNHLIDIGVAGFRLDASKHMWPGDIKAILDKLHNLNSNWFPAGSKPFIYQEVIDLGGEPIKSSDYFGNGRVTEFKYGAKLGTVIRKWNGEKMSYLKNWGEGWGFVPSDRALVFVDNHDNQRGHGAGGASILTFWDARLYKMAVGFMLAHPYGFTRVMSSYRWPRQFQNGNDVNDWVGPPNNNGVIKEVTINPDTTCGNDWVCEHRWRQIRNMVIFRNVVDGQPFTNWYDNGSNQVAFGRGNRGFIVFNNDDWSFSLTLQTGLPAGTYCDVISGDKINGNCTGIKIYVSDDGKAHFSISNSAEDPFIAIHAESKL
The assay can be described thus: α-Amylase inhibitory action (blue starch, Neo-Amylase Test). It counts as biochemical. As to conditions: final concentration required to inhibit the activity of the HPA solution by 50%; 37° C.
Method: “Caribzyme AMY” (International Reagents) was used for the human pancreatic α-amylase (HPA). Purified water was added to the commercially available HPA and dissolved to a concentration of 200 IU/l to prepare an α-amylase solution. The activity of the α-amylase was measured using a commercially available α-amylase assay reagent (“Neo-Amylase Test Daiichi”, Daiichi Pure Chemicals).
Each test compound was prepared with distilled water to a final concentration of 0.1 to 30 μg/ml, respectively.
After incubating for 10 minutes at 37° C., a blue starch tablet (“Neo-Amylase Test Daiichi”, Daiichi Pure Chemicals) was added followed by stirring for about 10 seconds with a mixer and heating for 30 minutes at 37° C. […] In addition, distilled water was added instead of α-amylase for use as a blank. […] Inhibition rate(%)=[1−{(Absorbance of control)−(absorbance of blank)}/{(absorbance when inhibitor added)−(absorbance of blank)}]×100

The test system of another assay is normal mice (ddY mice). The assay can be described thus: Postprandial hyperglycemia inhibitory action (cornstarch loading). It counts as in vivo. As to conditions: ddY mice fasted 20 hours; oral 0.3 mg (test compound)/2 g (cornstarch)/kg; AUC of increase in blood glucose levels, 0.5-3 hours after dosing, vs control group. Here is the method:
Commercially available normal mice (ddY mice, males, age 8 weeks at the time of testing, supplied by Japan SLC).
(§1) (2) Experimental Methods and Results
For the dose group, a test compound and commercially available cornstarch were mixed well with 0.5% carboxymethyl cellulose to prepare a suspension that was orally administered at 0.3 mg (test compound)/2 g (cornstarch)/kg (body weight) to five mice that had been fasted in advance for 20 hours. The control group was administered with a similar suspension in the same manner with the exception of not containing the test compound.
Blood glucose levels were measured using a blood glucose analyzer (Glucoloader GXT, A & T). Inhibition rate(%)=[1−(dose group AUC/control group blood glucose increase AUC)]×100

Assay [2] relates to genetically obese diabetic mice (C57BL/KsJ-db/db mice). The assay is described as follows: Blood glucose lowering action in genetically obese diabetic mice. It counts as in vivo. Particulars: 0.005% (w/w) in diet, freely ingested for 1 week, vs control group.
Source text: Commercially available, genetically obese diabetic mice (C57BL/KsJ-db/db mice, males, age 16 weeks at the time of testing, supplied by Clea Japan).
as §1
A test compound was mixed into a refined laboratory animal diet (carbohydrate content: 65.95% (w/w), Oriental Yeast) to a test compound concentration of 0.005% (w/w) and allowed to be freely ingested by diabetic mice for 1 week in groups of 5 mice per group. A control group was allowed similar unrestricted access to the same feed with the exception of not containing the test compound.
Blood glucose levels were measured before the start of dosing and one week after the start of dosing. Blood samples were collected from a tail vein and blood glucose levels were measured using a blood glucose analyzer (Glucoloader GXT, A & T) to calculate the blood glucose lowering rate (%) according to the following formula. Blood glucose lowering rate(%)=[1−(compound dose group blood glucose level/control group blood glucose level)]×100

A word on the IC50: it is the midpoint of a concentration-inhibition curve. Molecule `C[C@H]1O[C@H](O[C@H]2[C@H](O)[C@@H](O)[C@@H](O[C@H]3[C@H](O)CN[C@@H]3CO)O[C@@H]2CO)[C@H](O)[C@@H](O)[C@@H]1O` [Example 1, (2R,3R,4R)-4-Hydroxy-2-(hydroxymethyl)pyrrolidin-3-yl 4-O-(6-deoxy-α-D-glucopyranosyl)-α-D-glucopyranoside] showed an IC50 in assay [1] of 1590 nM. Take `C[C@H]1O[C@@H](O[C@H]2[C@H](O)[C@@H](O)[C@@H](O[C@H]3[C@H](O)CN[C@@H]3CO)O[C@@H]2CO)[C@H](O)[C@@H](O)[C@@H]1O` [Example 2, (2R,3R,4R)-4-Hydroxy-2-(hydroxymethyl)pyrrolidin-3-yl 4-O-(6-deoxy-β-D-glucopyranosyl)-α-D-glucopyranoside]: the IC50 in assay [1] is 453 nM. Moreover, the “Inhibition Rate” value in the assay with normal mice (ddY mice) was 64%. For the same molecule, in assay [2], the “Blood Glucose Lowering Rate” value was found to be 47%. On to `C[C@H]1O[C@@H](O[C@H]2[C@H](O)[C@@H](O)[C@@H](O[C@H]3[C@H](O)[C@@H](CO)N[C@@H]3CO)O[C@@H]2CO)[C@H](O)[C@@H](O)[C@@H]1O` [Example 7, (2R,3R,4R,5R)-2,5-Dihydroxymethyl-4-hydroxypyrrolidin-3-yl 4-O-(6-deoxy-β-D-glucopyranosyl)-α-D-glucopyranoside], for which, in assay [1], the IC50 is 8480 nM. On the same count and under the same terms, as for `COC[C@H]1O[C@@H](O[C@H]2[C@H](O)[C@@H](O)[C@@H](O[C@H]3[C@H](O)CN[C@@H]3CO)O[C@@H]2CO)[C@H](O)[C@@H](O)[C@@H]1O` [Example 8, (2R,3R,4R)-4-Hydroxy-2-hydroxymethyl-pyrrolidin-3-yl 4-O-(6-methoxy-6-deoxy-β-D-glucopyranosyl)-D-glucopyranoside], the figure is 848 nM; as for `C[C@H]1O[C@H](O[C@H]2[C@H](O)[C@@H](O)[C@H](O[C@H]3[C@H](O)CN[C@@H]3CO)O[C@@H]2CO)[C@H](O)[C@@H](O)[C@@H]1O` [Example 13, (2R,3R,4R)-4-Hydroxy-2-hydroxymethyl-pyrrolidin-3-yl 4-O-(6-deoxy-α-D-glucopyranosyl)-β-D-glucopyranoside], 9060 nM; as for `C[C@H]1O[C@H](O[C@H]2[C@H](O)[C@@H](O)[C@@H](O[C@H]3[C@H](O)[C@@H](O)[C@H](N)[C@@H]3CO)O[C@@H]2CO)[C@H](O)[C@@H](O)[C@@H]1O` [Example 14, (1R,2S,3R,4R,5R)-1-Amino-2,3-dihydroxy-5-hydroxymethyl-cyclopent-4-yl 4-O-(6-deoxy-α-D-glucopyranosyl)-α-D-glucopyranoside], 2120 nM. Still for that read-out and setting: the figure for `C[C@H]1O[C@@H](O[C@H]2[C@H](O)[C@@H](O)[C@@H](O[C@H]3[C@H](O)[C@@H](O)[C@H](N)[C@@H]3CO)O[C@@H]2CO)[C@H](O)[C@@H](O)[C@@H]1O` [Example 15, (1R,2S,3R,4R,5R)-1-Amino-2,3-dihydroxy-5-hydroxymethyl-cyclopent-4-yl 4-O-(6-deoxy-β-D-glucopyranosyl)-α-D-glucopyranoside] is 1270 nM.
